Experimental data reported in PubChem BioAssay AID2060487 (Molecular Pharmacology Branch, DTP, NCI, 2025).
Blank lines part the entries; values can stand above or below the molecule they belong to.

Tested on: 997537-175-T-J1-PDC complex spheroid viability
Assay: Anticancer human tumor 997537-175-T-J1-PDC patient-derived colon adenocarcinoma cell line growth inhibition [GQUAD]
Conditions: for IC50: curve of first compound; for viability, T/C: stronger effect = lower value
Procedure, shortened: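 Multi-cell-type spheroids of tumor cells with HUVEC and mesenchymal stem cells, treated with drug combinations. Concentrations descend in half-log steps from near clinical Cmax, or from 10 microM where Cmax is unknown; viability read-out.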

[1] = second compound 0.0316 µM, first compound 0.0316 µM
[2] = second compound 0.0316 µM, first compound 0.1 µM
[3] = second compound 0.0316 µM, first compound 0.316 µM
[4] = second compound 0.0316 µM, first compound 1 µM
[5] = second compound 0.0316 µM, first compound 3.16 µM
[6] = second compound 0.0316 µM, first compound 10 µM
[7] = second compound 0.1 µM, first compound 0.0316 µM
[8] = second compound 0.1 µM, first compound 0.1 µM
[9] = second compound 0.1 µM, first compound 0.316 µM
[10] = second compound 0.1 µM, first compound 1 µM
[11] = second compound 0.1 µM, first compound 3.16 µM
[12] = second compound 0.1 µM, first compound 10 µM
[13] = second compound 0.316 µM, first compound 0.0316 µM
[14] = second compound 0.316 µM, first compound 0.1 µM
[15] = second compound 0.316 µM, first compound 0.316 µM
[16] = second compound 0.316 µM, first compound 1 µM
[17] = second compound 0.316 µM, first compound 3.16 µM
[18] = second compound 0.316 µM, first compound 10 µM
[19] = second compound 1 µM, first compound 0.0316 µM
[20] = second compound 1 µM, first compound 0.1 µM
[21] = second compound 1 µM, first compound 0.316 µM
[22] = second compound 1 µM, first compound 1 µM
[23] = second compound 1 µM, first compound 3.16 µM
[24] = second compound 1 µM, first compound 10 µM
[25] = second compound 3.16 µM, first compound 0.0316 µM
[26] = second compound 3.16 µM, first compound 0.1 µM
[27] = second compound 3.16 µM, first compound 0.316 µM
[28] = second compound 3.16 µM, first compound 1 µM
[29] = second compound 3.16 µM, first compound 3.16 µM
[30] = second compound 3.16 µM, first compound 10 µM
[31] = second compound 10 µM, first compound 0.0316 µM
[32] = second compound 10 µM, first compound 0.1 µM
[33] = second compound 10 µM, first compound 0.316 µM
[34] = second compound 10 µM, first compound 1 µM
[35] = second compound 10 µM, first compound 3.16 µM
[36] = second compound 10 µM, first compound 10 µM
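Further: spheroids exposed to the agents for 7 days.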
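Wherever viability, T/C is given: 100% = DMSO vehicle control viability.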

Compound: COc1cc(C2c3cc4c(cc3C(OC3OC5COC(C)OC5C(O)C3O)C3COC(=O)C23)OCO4)cc(OC)c1O (stereo unspecified) + CN(C)c1ccc(Nc2c3ccc(NC(=O)CCN4CCCC4)cc3nc3cc(NC(=O)CCN4CCCC4)ccc23)cc1
IC50 (second compound 0.0316 µM): > 10 µM
IC50 (second compound 0.1 µM): > 10 µM
IC50 (second compound 0.316 µM): > 10 µM
IC50 (second compound 1 µM): > 10 µM
IC50 (second compound 3.16 µM): > 10 µM
IC50 (second compound 10 µM): > 10 µM
viability, T/C [1]: 93.8%
viability, T/C [2]: 105%
viability, T/C [3]: 96.5%
viability, T/C [4]: 78.6%
viability, T/C [5]: 74.1%
viability, T/C [6]: 74.7%
viability, T/C [7]: 113%
viability, T/C [8]: 105%
viability, T/C [9]: 101%
viability, T/C [10]: 81.2%
viability, T/C [11]: 95.2%
viability, T/C [12]: 65.7%
viability, T/C [13]: 97.2%
viability, T/C [14]: 96.6%
viability, T/C [15]: 91.4%
viability, T/C [16]: 87.1%
viability, T/C [17]: 92.3%
viability, T/C [18]: 64.8%
viability, T/C [19]: 89.1%
viability, T/C [20]: 110%
viability, T/C [21]: 90.2%
viability, T/C [22]: 75.1%
viability, T/C [23]: 91.2%
viability, T/C [24]: 55.2%
viability, T/C [25]: 78.7%
viability, T/C [26]: 102%
viability, T/C [27]: 76.7%
viability, T/C [28]: 95.2%
viability, T/C [29]: 83.2%
viability, T/C [30]: 72.3%
viability, T/C [31]: 79.7%
viability, T/C [32]: 108%
viability, T/C [33]: 99.9%
viability, T/C [34]: 87.2%
viability, T/C [35]: 89.8%
viability, T/C [36]: 67.4%

IC50 (second compound 0.0316 µM): 3.67 µM
IC50 (second compound 0.1 µM): 8.64 µM
IC50 (second compound 0.316 µM): > 10 µM
IC50 (second compound 1 µM): > 10 µM
IC50 (second compound 3.16 µM): > 10 µM
IC50 (second compound 10 µM): > 10 µM
Compound: CC1COCCN1c1cc(C2(S(C)(=N)=O)CC2)nc(-c2ccnc3[nH]ccc23)n1 (stereo unspecified) + Cc1cnc(CNC(=O)c2c(=O)c3ccc(N4CCCN(C)CC4)nc3n3c2sc2ccccc23)cn1
viability, T/C [1]: 105%
viability, T/C [2]: 88.9%
viability, T/C [3]: 84.8%
viability, T/C [4]: 56.8%
viability, T/C [5]: 54.9%
viability, T/C [6]: 41.7%
viability, T/C [7]: 91.4%
viability, T/C [8]: 90.4%
viability, T/C [9]: 83.9%
viability, T/C [10]: 65.9%
viability, T/C [11]: 72.3%
viability, T/C [12]: 45.2%
viability, T/C [13]: 89.5%
viability, T/C [14]: 92.8%
viability, T/C [15]: 80.6%
viability, T/C [16]: 60.3%
viability, T/C [17]: 55.4%
viability, T/C [18]: 53.4%
viability, T/C [19]: 86.7%
viability, T/C [20]: 82.5%
viability, T/C [21]: 69.6%
viability, T/C [22]: 65.8%
viability, T/C [23]: 84.7%
viability, T/C [24]: 83.7%
viability, T/C [25]: 65.4%
viability, T/C [26]: 83.7%
viability, T/C [27]: 104%
viability, T/C [28]: 78.2%
viability, T/C [29]: 59.3%
viability, T/C [30]: 69%
viability, T/C [31]: 74.8%
viability, T/C [32]: 71.4%
viability, T/C [33]: 91.8%
viability, T/C [34]: 68.3%
viability, T/C [35]: 85.4%
viability, T/C [36]: 85.8%

Compound: CC[C@@]1(O)C(=O)OCc2c1cc1n(c2=O)Cc2cc3c(CN(C)C)c(O)ccc3nc2-1 + Cc1[nH]c2ccc(F)cc2c1-c1nc2c3cccnc3c3ncccc3c2[nH]1
IC50 (second compound 0.0316 µM): > 0.316 µM
IC50 (second compound 0.1 µM): > 0.316 µM
IC50 (second compound 0.316 µM): > 0.316 µM
IC50 (second compound 1 µM): > 0.316 µM
IC50 (second compound 3.16 µM): > 0.316 µM
IC50 (second compound 10 µM): > 0.316 µM
viability, T/C (second compound 0.0316 µM, first compound 0.000999 µM): 97.8%
viability, T/C (second compound 0.0316 µM, first compound 0.00316 µM): 91.4%
viability, T/C (second compound 0.0316 µM, first compound 0.00999 µM): 99.2%
viability, T/C [1]: 86.7%
viability, T/C (second compound 0.0316 µM, first compound 0.0999 µM): 90.6%
viability, T/C [3]: 55.9%
viability, T/C (second compound 0.1 µM, first compound 0.000999 µM): 92%
viability, T/C (second compound 0.1 µM, first compound 0.00316 µM): 89.1%
viability, T/C (second compound 0.1 µM, first compound 0.00999 µM): 75.6%
viability, T/C [7]: 82.8%
viability, T/C (second compound 0.1 µM, first compound 0.0999 µM): 61.2%
viability, T/C [9]: 54.7%
viability, T/C (second compound 0.316 µM, first compound 0.000999 µM): 85.9%
viability, T/C (second compound 0.316 µM, first compound 0.00316 µM): 72.1%
viability, T/C (second compound 0.316 µM, first compound 0.00999 µM): 81.3%
viability, T/C [13]: 97%
viability, T/C (second compound 0.316 µM, first compound 0.0999 µM): 85.5%
viability, T/C [15]: 55.1%
viability, T/C (second compound 1 µM, first compound 0.000999 µM): 80.8%
viability, T/C (second compound 1 µM, first compound 0.00316 µM): 59.6%
viability, T/C (second compound 1 µM, first compound 0.00999 µM): 85.8%
viability, T/C [19]: 93%
viability, T/C (second compound 1 µM, first compound 0.0999 µM): 80.2%
viability, T/C [21]: 62.6%
viability, T/C (second compound 3.16 µM, first compound 0.000999 µM): 51.4%
viability, T/C (second compound 3.16 µM, first compound 0.00316 µM): 82.8%
viability, T/C (second compound 3.16 µM, first compound 0.00999 µM): 61%
viability, T/C [25]: 51.2%
viability, T/C (second compound 3.16 µM, first compound 0.0999 µM): 90.5%
viability, T/C [27]: 70.8%
viability, T/C (second compound 10 µM, first compound 0.000999 µM): 71.8%
viability, T/C (second compound 10 µM, first compound 0.00316 µM): 82.4%
viability, T/C (second compound 10 µM, first compound 0.00999 µM): 77.3%
viability, T/C [31]: 62.2%
viability, T/C (second compound 10 µM, first compound 0.0999 µM): 62.9%
viability, T/C [33]: 58.9%
